The molecules below were run against T1, IDO in Hela cells (Homo sapiens, UniProt P14902) (assay: Test of cellular activity (kynurenine formation in interferon γ stimulated Hela cells)). Settings: head prints IPS cells, method: Hela cells, 48 h incubation, read at 480 nm.
T1 construct: endogenous in cells; host or cells: HeLa cells stimulated with human interferon γ
Format: cell-based
Procedure: (3) Test Method of Cellular Activity
Hela cells (80 μL) was inoculated on a 96-well plate (5×10^3 for each well) to grow overnight. After the compound was diluted the next day, 1 μL of diluent and 100 μL of culture medium which contains human interferon γ (final concentration: 50 ng/m) were added into the 96-well plate to make the final volume reach […]. After incubating for 48 h, 80 μL of supernate was transferred from each well to a new […]. 10 μL 6.1N trichloroacetic acid was added into each well for mixing and incubation at 50° C. for 30 min, and […] N formyl-kynurenin into kynurenine. The reaction mixture was centrifuged at 2,500 rpm for 10 min, 70 μL of supernatant of each well was transferred to a new 96-well plate and mixed with 100 μL of 2% (w/v) dimethylaminobenzaldehyde acetic acid solution. After placing for 5-10 min, measurement was carried out at 480 nm with the SPECTRAmax i13 reader.

T1 sequence (P14902 whole entry): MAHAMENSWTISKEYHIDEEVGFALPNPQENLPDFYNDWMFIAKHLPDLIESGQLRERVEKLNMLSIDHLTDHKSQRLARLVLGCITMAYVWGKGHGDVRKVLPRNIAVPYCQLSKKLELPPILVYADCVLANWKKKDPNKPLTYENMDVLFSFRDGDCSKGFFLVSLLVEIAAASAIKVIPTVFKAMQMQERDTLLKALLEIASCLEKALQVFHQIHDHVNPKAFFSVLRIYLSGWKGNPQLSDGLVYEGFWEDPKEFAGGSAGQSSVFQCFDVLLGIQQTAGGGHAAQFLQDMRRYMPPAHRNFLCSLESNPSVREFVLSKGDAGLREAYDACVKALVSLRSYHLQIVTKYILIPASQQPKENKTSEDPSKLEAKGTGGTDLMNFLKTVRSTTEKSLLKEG

| SMILES | IC50 [nM] |
| --- | --- |
| O=C(Nc1ccc(Cl)cc1)C1CCC12CCC(c1ccnc3ccc(F)cc13)CC2 (racemic) [Example 10B, (±) N-(4-chlorophenyl)-7-(6-fluoroquinolin-4-yl)spiro[3.5]nonane-1-carboxamide] | > 3 |
| O=C(Nc1ccc(F)cc1)C1CC2(CCC(c3ccnc4ccc(F)cc34)CC2)C1 (single isomer, unassigned) [Example 25, N-(4-fluorophenyl)-7-(6-fluoroquinolin-4-yl)spiro[3.5]nonane-2-carboxamide] | 0.69 |
| O=C(Nc1ccc(Br)cc1)C1CC2(CCC(c3ccnc4ccc(F)cc34)CC2)C1 (single isomer, unassigned) [Example 26, N-(4-bromophenyl)-7-(6-fluoroquinoline-4-yl)spiro[3.5]nonane-2-carboxamide] | 0.79 |
| O=C(Nc1ccccn1)C1CC2(CCC(c3ccnc4ccc(F)cc34)CC2)C1 (single isomer, unassigned) [Example 27] | > 10 |
| Cn1ccc(-c2ccc(NC(=O)C3CC4(CCC(c5ccnc6ccc(F)cc56)CC4)C3)cc2F)n1 (single isomer, unassigned) [Example 28, N-(3-fluoro-4-(1-methyl-1H-pyrazol-3-yl)phenyl)-7-(6-fluoroquinolin-4-yl)spiro[3.5]nonane-2-carboxamide] | > 10 |
| O=C(Nc1ccccc1Cl)C1CC2(CCC(c3ccnc4ccc(F)cc34)CC2)C1 (single isomer, unassigned) [Example 29, N-(2-chlorophenyl)-7-(6-fluoroquinolin-4-yl)spiro[3.5]nonane-2-carboxamide] | > 10 |
| O=C(Nc1ccc(Cl)cc1F)C1CC2(CCC(c3ccnc4ccc(F)cc34)CC2)C1 (single isomer, unassigned) [Example 30, N-(4-chloro-2-fluorophenyl)-7-(6-fluoroquinoline-4-yl)spiro[3.5]nonane-2-carboxamide] | 2.53 |
| O=C(Nc1cccc(F)c1)C1CC2(CCC(c3ccnc4ccc(F)cc34)CC2)C1 (single isomer, unassigned) [Example 31, N-(3-fluorophenyl)-7-(6-fluoroquinoline-4-yl)spiro[3.5]nonane-2-carboxamide] | 1.97 |
| O=C(Nc1cccc(Br)c1)C1CC2(CCC(c3ccnc4ccc(F)cc34)CC2)C1 (single isomer, unassigned) [Example 32, N-(3-bromophenyl)-7-(6-fluoroquinoline-4-yl)spiro[3.5]nonane-2-carboxamide] | > 10 |
| O=C(Nc1cccnc1)C1CC2(CCC(c3ccnc4ccc(F)cc34)CC2)C1 (single isomer, unassigned) [Example 33, 7-(6-fluoroquinoline-4-yl)-N-(pyridine-3-yl)spiro[3.5]nonane-2-carboxamide] | > 10 |
| O=C(Nc1ccc(Cl)c(F)c1)C1CC2(CCC(c3ccnc4ccc(F)cc34)CC2)C1 (single isomer, unassigned) [Example 34, N-(3-fluoro-4-chlorophenyl)-7-(6-fluoroquinoline-4-yl)spiro[3.5]nonane-2-carboxamide] | 1.36 |
| O=C(Nc1ccc(C(F)(F)F)cc1)C1CC2(CCC(c3ccnc4ccc(F)cc34)CC2)C1 (single isomer, unassigned) [Example 35, 7-(6-fluoroquinolin-4-yl)-N-(4-(trifluoromethyl)phenyl)spiro[3.5]nonane-2-carboxamide] | 6.23 |
| O=C(Nc1cccc(Cl)c1)C1CC2(CCC(c3ccnc4ccc(F)cc34)CC2)C1 (single isomer, unassigned) [Example 36, N-(3-chlorophenyl)-7-(6-fluoroquinoline-4-yl)spiro[3.5]nonane-2-carboxamide] | 8.32 |
| O=C(Nc1ccc(Br)c(F)c1)C1CC2(CCC(c3ccnc4ccc(F)cc34)CC2)C1 (single isomer, unassigned) [Example 37, N-(3-fluoro-4-bromophenyl)-7-(6-fluoroquinoline-4-yl)spiro[3.5]nonane-2-carboxamide] | > 10 |
| O=C(Nc1ccc(F)c(Cl)c1)C1CC2(CCC(c3ccnc4ccc(F)cc34)CC2)C1 (single isomer, unassigned) [Example 38, N-(3-chloro-4-fluorophenyl)-7-(6-fluoroquinoline-4-yl)spiro[3.5]nonane-2-carboxamide] | > 10 |
| O=C(Nc1ccc(F)c(F)c1)C1CC2(CCC(c3ccnc4ccc(F)cc34)CC2)C1 (single isomer, unassigned) [Example 40, N-(3,4-difluorophenyl)-7-(6-fluoroquinoline-4-yl)spiro[3.5]nonane-2-carboxamide] | 3.05 |
| O=C(Nc1ccccc1C(F)(F)F)C1CC2(CCC(c3ccnc4ccc(F)cc34)CC2)C1 (single isomer, unassigned) [Example 41, 7-(6-fluoroquinoline-4-yl)-N-(2-(trifluoromethyl)phenyl)spiro[3.5]nonane-2-carboxamide] | > 10 |
| O=C(Nc1ccc(Cl)cn1)C1CC2(CCC(c3ccnc4ccc(F)cc34)CC2)C1 (single isomer, unassigned) [Example 42, N-(5-chloropyridine-2-yl)-7-(6-fluoroquinoline-4-yl)spiro[3.5]nonane-2-carboxamide] | 9.5 |
| O=C(Nc1ccc(-c2ccccc2)cc1)C1CC2(CCC(c3ccnc4ccc(F)cc34)CC2)C1 (single isomer, unassigned) [Example 43, N-([1,1′-biphenyl]-4-yl)-7-(6-fluoroquinolin-4-yl)spiro[3.5]nonane-2-carboxamide] | 3.07 |
| O=C(Nc1cccc(-c2ccccc2)c1)C1CC2(CCC(c3ccnc4ccc(F)cc34)CC2)C1 (single isomer, unassigned) [Example 44, N-([1,1′-biphenyl]-3-yl)-7-(6-fluoroquinolin-4-yl)spiro[3.5]nonane-2-carboxamide] | > 10 |
| O=C(Nc1ccc(C(F)(F)F)c(Cl)c1)C1CC2(CCC(c3ccnc4ccc(F)cc34)CC2)C1 (single isomer, unassigned) [Example 45, N-(3-chloro-4-(trifluoromethyl)phenyl)-7-(6-fluoroquinoline-4-yl)spiro[3.5]nonane-2-carboxamide] | > 10 |
| O=C(Nc1ccccc1F)C1CC2(CCC(c3ccnc4ccc(F)cc34)CC2)C1 (single isomer, unassigned) [Example 46, N-(2-fluorophenyl)-7-(6-fluoroquinoline-4-yl)spiro[3.5]nonane-2-carboxamide] | 2.74 |
| O=C(Nc1ccccc1Br)C1CC2(CCC(c3ccnc4ccc(F)cc34)CC2)C1 (single isomer, unassigned) [Example 47, N-(2-bromophenyl)-7-(6-fluoroquinoline-4-yl)spiro[3.5]nonane-2-carboxamide] | > 10 |
| O=C(Nc1ccncc1)C1CC2(CCC(c3ccnc4ccc(F)cc34)CC2)C1 (single isomer, unassigned) [Example 48] | > 10 |
| N#Cc1ccc(NC(=O)C2CC3(CCC(c4ccnc5ccc(F)cc45)CC3)C2)cc1 (single isomer, unassigned) [Example 49, N-(4-cyanophenyl)-7-(6-fluoroquinolin-4-yl)spiro[3.5]nonane-2-carboxamide] | 1.32 |
| O=C(Nc1cccc(C(F)(F)F)c1)C1CC2(CCC(c3ccnc4ccc(F)cc34)CC2)C1 [Example 39, (2S,4s,7S)-7-(6-fluoroquinoline-4-yl)-N-(3-(trifluoromethyl)phenyl)spiro[3.5]nonane-2-carboxamide] | > 10 |

Each molecule was assayed against T2, IDO enzyme (Homo sapiens, UniProt P14902) (assay: IDO enzyme inhibitory activity test). Settings: recombinant IDO, D-Trp substrate, reading at 321 nm for 40 min.
T2 construct: made in house; host or cells: E. coli BL21 (pET28a-IDO plasmid)
Format: biochemical
Procedure: (1) Induced Expression and Purification Method of IDO Protein
Firstly, DO gene was amplified with PCR, and the amplified PCR product was recycled. Digestion (2 h under 37° C.), gel running and recycling were carried out on the pET28a plasmid (purchased from Shanghai Baomanbio Co., Ltd.) and IDO gel with two restriction enzymes (EcoR I and Xho I). T4 ligase was connected with the product overnight, added into DH5α competence, placed on the ice for 30 min and subjected to thermal shock at 42° C. for 90 s.
BL21 which contained pET28a-IDO plasmid was shaken vigorously at 37° C. till OD600 was 0.6-0.8, added into hemin (final concentration: 40 μM) and 0.5 mM IPTG (isopropyl-3-D-IPTG) and induced under 16° C. for 20 h; after induction, thallus were collected centrifugally at 4° C. and 6,000 rpm, washed with 50 mM PBS (pH 7.5) and collected again centrifugally.
The collected thallus were suspended again with buffer solution (50 mM PBS pH 7.5). An appropriate amount of 100×PMSF was added. The thallus were disrupted with cell disruption instrument (1,400 bar) at 4° C. for three times. The split bacteria were centrifuged at 18,000×g for 45 min. The sediment was removed but supernatant was retained and filtered with a 0.45 μm film at 4° C.; the nickel column was balanced with lysis buffer (50 mM PBS pH7.5) by 3 column volumes.
The supernatant was loaded on the nickel column and washed with wash solution (50 mM PBS pH7.5, 50 mM imidazole) by 4 column volume. Finally, protein was eluted with eluant (50 mM PBS pH7.5, 250 mM imidazole); dialyzed for 6 h with dialysis solution (50 mM PBS pH7.5), concentrated, sub-packaged, quickly frozen with liquid nitrogen and stored at −80° C. for backup.
(2) Test Method for IDO Enzyme Inhibitory Activity
Firstly, the compound was diluted by triple gradient. 1 μL of each concentration was added into a 96-well plate; 50 μL of IDO Enzyme solution PBS (pH 7.5; final concentration: 50 mM) was added: 25 μL of substrate 1 (methylene blue, final concentration: […]; catalase, final concentration: 0.2 μg/L; PBS (pH 7.5; final concentration: 50 mM) mixture and 25 μL of substrate 2 (D-Trp, final concentration: 1.5 mM; sodium ascorbate, final concentration: 20 mM; PBS (pH 7.5), final concentration 50 mM) mixture were added for starting the reaction. Finally, OOD321 nm reading was carried out for 40 min.

T2 sequence (P14902 whole entry): as above

| SMILES | IC50 [nM] |
| --- | --- |
| O=C(Nc1ccc(Cl)cc1)C1CC12CCC(c1ccnc3ccccc13)CC2 (racemic) [Example 2B, (±)-(cis/trans)-N-(4-chlorophenyl)-6-(quinolin-4-yl)spiro[2.5]octane-1-carboxamide] | 500 |
